{"source": "patent US20040248775A1", "about": "“Methods for screening inhibitors of apoptosis” (Wyeth, priority 2003, published 2004)", "target": "T1, NBS mutant NALP1 (Homo sapiens, UniProt Q9C000, G339E/K340A)", "T1 construct": "to generate full-length NALP1 in frame with EGFP; expressed in transfected cells; host or cells: HeLa cells, transient transfection; S-100 extract used", "T1 sequence (Q9C000 1-1473 G339E/K340A)": "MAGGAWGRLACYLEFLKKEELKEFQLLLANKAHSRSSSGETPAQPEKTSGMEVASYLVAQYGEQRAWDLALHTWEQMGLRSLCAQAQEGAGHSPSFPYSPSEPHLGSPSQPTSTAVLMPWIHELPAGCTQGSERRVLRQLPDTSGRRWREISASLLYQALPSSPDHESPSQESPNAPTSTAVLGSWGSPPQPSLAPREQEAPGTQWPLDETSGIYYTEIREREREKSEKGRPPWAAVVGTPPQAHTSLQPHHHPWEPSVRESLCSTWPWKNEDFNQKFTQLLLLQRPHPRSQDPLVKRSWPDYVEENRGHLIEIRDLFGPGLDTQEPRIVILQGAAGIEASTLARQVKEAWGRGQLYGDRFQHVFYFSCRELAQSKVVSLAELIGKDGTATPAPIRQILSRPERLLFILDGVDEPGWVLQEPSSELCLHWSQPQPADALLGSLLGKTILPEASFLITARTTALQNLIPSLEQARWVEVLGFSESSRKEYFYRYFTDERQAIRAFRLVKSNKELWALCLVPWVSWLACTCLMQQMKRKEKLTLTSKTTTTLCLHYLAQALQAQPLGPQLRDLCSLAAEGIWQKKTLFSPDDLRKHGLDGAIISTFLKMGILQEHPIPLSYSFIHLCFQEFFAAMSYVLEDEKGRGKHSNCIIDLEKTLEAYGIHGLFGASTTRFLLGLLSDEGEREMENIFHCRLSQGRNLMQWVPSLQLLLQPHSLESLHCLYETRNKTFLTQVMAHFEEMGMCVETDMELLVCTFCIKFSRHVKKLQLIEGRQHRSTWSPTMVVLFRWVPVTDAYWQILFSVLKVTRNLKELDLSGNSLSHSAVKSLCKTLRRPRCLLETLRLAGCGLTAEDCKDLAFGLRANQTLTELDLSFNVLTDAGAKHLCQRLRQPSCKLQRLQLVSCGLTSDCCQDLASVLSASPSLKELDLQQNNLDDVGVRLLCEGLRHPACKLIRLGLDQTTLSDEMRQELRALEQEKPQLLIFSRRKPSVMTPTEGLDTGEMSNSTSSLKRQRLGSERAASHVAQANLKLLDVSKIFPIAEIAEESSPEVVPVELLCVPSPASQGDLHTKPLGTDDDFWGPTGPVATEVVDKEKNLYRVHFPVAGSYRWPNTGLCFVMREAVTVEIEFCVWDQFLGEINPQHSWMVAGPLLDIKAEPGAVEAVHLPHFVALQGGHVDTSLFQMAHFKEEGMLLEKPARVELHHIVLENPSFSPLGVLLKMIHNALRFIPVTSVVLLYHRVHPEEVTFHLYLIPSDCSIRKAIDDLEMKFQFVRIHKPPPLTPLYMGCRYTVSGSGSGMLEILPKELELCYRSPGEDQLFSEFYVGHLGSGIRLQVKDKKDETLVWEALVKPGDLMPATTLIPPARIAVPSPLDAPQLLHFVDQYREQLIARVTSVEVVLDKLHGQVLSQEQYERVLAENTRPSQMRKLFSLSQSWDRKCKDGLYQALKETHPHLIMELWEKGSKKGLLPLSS", "assay": "Fluorimetric DEVDase (caspase-3) assay in HeLa cell extracts expressing NBS mutant NALP1-EGFP", "assay_type": "biochemical", "details": "2 mM dATP, 2 mM MgCl2, 1 hour, Ac-DEVD-AMC substrate", "procedure": "Cell extract preparation and fluorimetric assay of caspase activity. Preparation of cell extracts, dATP incubation and caspase-3 activities assays were performed as described by Liu et al. (1996). Briefly, HeLa cells were grown in DMEM, 10% FBS. Cells were plated in T175 flasks to 60% confluence. Control vector pEGFP or wild-type or NBS mutant NALP1-EGFP expression plasmids were transfected into HeLa cells using Lipofectamine Plus. Cells were collected in homogenization buffer (20 mM HEPES pH 7.5, 10 mM KCl, 1 mM sodium EDTA, […], 1 mM sodium EGTA, 0.1% CHAPS, 1 mM DTT, 0.1 mM PMSF and protease inhibitor cocktail tablets (Roche)), 24 hours after transfection. Cells were chilled on ice for 15 minutes and homogenized by douncing 30 times in a glass douncer. Samples were centrifuged at 1000×g for 10 minutes at 4° C. […] After 2 hours incubation, liberation of AMC (7-amino-4-methylcoumarin) from the substrate was monitored using excitation/emission wavelength pairs (λex/λem) of 380/460 nm using a SpectraFluor Plus instrument (Tecan). Triplicate samples were evaluated with or without specific inhibitors. […] Normalized data from multiple experiments were expressed as means±standard deviation. For each experiment, the expression of EGFP-tagged NALP1 proteins was analyzed by anti-GFP immunoblot and quantified by densitometry."}
{"compound": "Nc1ncnc2c1ncn2[C@H]1C[C@H](O)[C@@H](COP(=O)(O)OP(=O)(O)OP(=O)(O)O)O1", "note": "[dATP]", "values": [{"measurement": "DEVDase activity, extracts with NBS mutant NALP1", "value": "did not respond"}]}
